In publication PMC10702441 (2023):

Columns and labels:
Experiment in all cases: ITC
[1] = test system: Aca domain I split construct (dom I; 28-mer + 22-mer) (RNA, riboswitch) GGGCGCAACAUCCCCGCCGGUUGGGCGC/GCGCAGUGAACCGGCUGCGUCC; conditions: 100 mM NaCl, 20 mM MgCl2, 0.10 M Na-HEPES pH 7.0, 10 °C, 1:1 model, apparent
[2] = test system: Aai full-length NAD+-I (nadA) riboswitch, 100-mer (RNA, riboswitch) GGCUGCAACAUCCCCGUGGGUUGGACGGCGAAAGCCGUAGCGAAUCCACUGCAGCCUGUAUGGCUUUCAACAUCCCCGUCCGCGAAAGCGGACUGAAGGC
[3] = test system: Aca domain II split construct (dom II; 28-mer + 20-mer) (RNA, riboswitch) GCUUUCAACAUCCCCGUCCCGGGCGGAG/CUCCGCAGUGGACUGAAGGC; conditions: 100 mM NaCl, 20 mM MgCl2; 0.10 M Na-HEPES pH 7.0, 10 °C; ligand in syringe 0.40–0.63 mM
[4] = 100 mM NaCl, 20 mM MgCl2, 0.10 M Na-HEPES pH 7.0, 10 °C, 1:1 model, apparent

KD [1] [µM]	KD [2, 4] [µM]	binding [3]	KD ([2]; K+ (KCl replacing NaCl), KCl-containing ITC buffer, 10 °C, no significant change from Na+) [µM]	KD ([1]; error printed ± 7.1) [µM]	SMILES
55.5 ± 3.6	59.7 ± 2.2	no	–	–	NC(=O)C1=CN([C@@H]2O[C@H](COP(=O)(O)OP(=O)(O)OC[C@H]3O[C@@H](n4cnc5c(N)ncnc54)[C@H](O)[C@@H]3O)[C@@H](O)[C@H]2O)C=CC1
24.6 ± 8.4	31.5 ± 1.5	no	18.2 ± 2.1	–	NC(=O)c1ccc[n+]([C@@H]2O[C@H](COP(=O)(O)OP(=O)(O)OC[C@H]3O[C@@H](n4cnc5c(N)ncnc54)[C@H](O)[C@@H]3O)[C@@H](O)[C@H]2O)c1
–	30.2 ± 1.2	–	–	21.9 ± 8.4	NC(=O)c1ncn([C@@H]2O[C@H](COP(=O)(O)OP(=O)(O)OC[C@H]3O[C@@H](n4cnc5c(N)ncnc54)[C@H](O)[C@@H]3O)[C@@H](O)[C@H]2O)n1
11.1 ± 0.6	9.7 ± 1.1	–	–	–	Nc1ncnc2c1ncn2[C@@H]1O[C@H](COP(=O)(O)OP(=O)(O)O)[C@@H](O)[C@H]1O
–	11.0 ± 3.5	–	–	–	Nc1ncnc2c1ncn2[C@@H]1O[C@H](COP(=O)(O)OP(=O)(O)OP(=O)(O)O)[C@@H](O)[C@H]1O
